Measured values taken from patent US11471448B2 (priority 2020, dated 2022).
Where a name gives a salt, the structure may show the parent alone.

Tested on: patients with COVID-19 pneumonia
Assay: Randomized, double-blind, placebo-controlled Phase 2a study of opaganib in COVID-19 pneumonia
Type: in vivo, human
Excerpt: This was a phase 2a, proof of concept, multi-center randomized double-blind, parallel arm, placebo-controlled study. After informed consent was obtained, patients entered a screening phase for no more than 3 days, to determine eligibility. […] Treatment assignments remained blinded to the patient, investigator and hospital staff, as well as the sponsor. As there was no consensus for a definitive treatment specifically targeting the SARS-CoV-2 virus causing COVID-19 (Wilson, 2020), standard of care referred to regional, institutional or physician directed therapies, that were implemented during the COVID-19 pandemic.
Study drug was to be administered every day for 14 days (Day 1 to Day 14), unless the patient had been discharged from the hospital without requiring supplemental oxygen, in which case study drug would only be administered to Day 10.
All participants were followed up for 4 weeks after their last dose of study drug, which may have occurred at the end of the 2-week double-blind treatment phase or after premature study drug discontinuation, based upon patient or physician determination. The maximum duration of study participation was up to 45 days (including up to 3 days screening; 2 weeks DB treatment phase and 4-weeks off-study drug follow-up)
• 1. Adult male or female≥18 to ≤80 years of age • 2. Proven COVID-19 infection per RT-PCR assay of a pharyngeal sample (nasopharyngeal or oropharyngeal) AND pneumonia defined as radiographic opacities on chest X-ray • 3. The patient requires supplemental oxygen at baseline • 4. The patient, guardian or legal representative has signed a written IRB-approved informed consent Exclusion: • 1. Any co-morbidity that may add risk to the treatment in the judgement of the investigator. • 2. Requiring intubation and mechanical ventilation • 3. Oxygen saturation≥95% on room air • 4. Any preexisting respiratory condition that requires intermittent or continuous ambulatory oxygen prior to hospitalization • 5. Patient is, in the investigator's clinical judgement, unlikely to survive >72 hours • 6. Pregnant (positive serum test within 3 days prior to randomization) or nursing women • 7. Unwillingness or inability to comply with procedures required in this protocol. • 8. Corrected QT (QTc) interval on electrocardiogram (ECG) >470 ms for females or >450 ms for males, calculated using Friedericia's formula (QTcF) • 9. AST (SGOT) or ALT (SGPT) >2.5× upper limit of normal (ULN) • 10. Bilirubin>1.5×ULN (except where bilirubin increase is due to Gilbert's Syndrome) • 11. Serum creatinine>2.0×ULN • 12. Absolute neutrophil count<1000 cells/mm^3 • 13. Platelet count<75,000/mm^3 • 14. Hemoglobin<8.0 g/dL • 15. Currently taking medications that are sensitive CYP3A4, CYP2C9 or CYP2C19 substrates and have a narrow therapeutic index • 16. Currently taking medications that are strong inducers or inhibitors of CYP2D6 and CYP3A4 • 17. Currently taking warfarin, apixaban, argatroban or rivaroxaban • 18. Current drug or alcohol abuse • 19. Currently participating in a clinical study assessing pharmacological treatments, including anti-viral studies Number of Subjects: […]

For `O=C(NCc1ccncc1)C12CC3CC(C1)CC(c1ccc(Cl)cc1)(C3)C2` [opaganib, 3-(4-chlorophenyl)-adamantane-1-carboxylic acid (pyridin-4-ylmethyl) amide, hydrochloride salt], the “patients with serious adverse events (SAEs) vs. placebo arm” value (500 mg Q12 hours up to 14 days) was “fewer patients”, the safety (500 mg Q12 hours up to 14 days plus standard of care, vs. placebo) was “safe” and the “reduction from baseline of the medial total oxygen requirement (AUC) over 14 days” value (control arm 46.7%) was 68.0%. The “proportion of patients discharged by Day 14” value (control arm 55.6%) was 73.7%, the “proportion of patients reaching room air and no longer requiring oxygen support by Day 14” value (mITT sensitivity, control arm 22.2%) was 52.6% and the “proportion of patients with 50% reduction in supplemental oxygen by day 14” value (mITT sensitivity, control arm 66.7%) was 89.5%. The “patients with adverse events such that study drug was terminated” value (opaganib arm, one patient in placebo arm) was “Two”.
